The values below come from patent US20100261731A1, “Method for Treating a Disease, Disorder or Adverse Effect Caused by an Elevated Serum Concentration of an UGT1A1 Substrate” (Abbott Laboratories, priority 2009, published 2010).

In data set [1] the test system is bilirubin conjugation in human microsomes. Conditions: in vitro system of human microsomes; cited from earlier work.
The conditions of data set [2]: subjects taking atazanavir, one study; cited from earlier work.
For another data set, the target named is T1, UGT1A1 isoform (Homo sapiens, UniProt P22309).
T1 sequence (P22309 26-533): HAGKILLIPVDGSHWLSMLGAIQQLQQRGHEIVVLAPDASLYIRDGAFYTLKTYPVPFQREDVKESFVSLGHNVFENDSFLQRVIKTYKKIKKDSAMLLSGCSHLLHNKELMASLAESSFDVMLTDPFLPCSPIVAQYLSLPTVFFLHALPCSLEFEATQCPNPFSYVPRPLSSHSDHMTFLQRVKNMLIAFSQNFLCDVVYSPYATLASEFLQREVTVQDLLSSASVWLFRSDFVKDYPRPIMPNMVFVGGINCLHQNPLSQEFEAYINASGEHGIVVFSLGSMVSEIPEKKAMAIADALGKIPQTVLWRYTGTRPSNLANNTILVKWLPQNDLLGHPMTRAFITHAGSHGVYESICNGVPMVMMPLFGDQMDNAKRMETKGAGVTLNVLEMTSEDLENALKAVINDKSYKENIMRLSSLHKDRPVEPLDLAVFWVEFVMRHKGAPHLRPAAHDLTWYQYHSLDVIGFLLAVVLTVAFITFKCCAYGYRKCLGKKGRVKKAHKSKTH
The settings on record: human cells transfected with the UGT1A1 isoform; cited from earlier work.

Data set [3] concerns 1-naphthol glucuronidation. The data set is described as follows: Hepatic 1-naphthol glucuronidation activity in liver microsomes of treated rats.
The subject of the next data set is UGT1A1. The data set is described as follows: Hepatic 17α-ethinylestradiol glucuronidation activity in liver microsomes of treated rats.
Data set [4] in a line: Ethinylestradiol pharmacokinetics alone and with ritonavir in healthy female volunteers. It counts as in vivo, human. The method, then: This was an open-label, single-center study in healthy female volunteers who had not received an oral contraceptive for a minimum of six months prior to study start. Subjects received the first dose of oral contraceptive containing 50 μg of ethinyl estradiol on Day 1. […] On Day 15, 300 mg q12h was administered, 400 mg q12h was given on Day 16, and 500 mg q12h was administered thereafter. […] Blood samples for ethinylestradiol concentrations were collected for 48 h after each of the oral contraceptive doses.
Twenty-seven subjects were enrolled in the study. […] Data from these four subjects were therefore excluded from summary statistics. The mean ±SD age of the 23 subjects who completed the study was 34±10 yrs (range 19 to 45 yrs), the mean ±SD weight was 67.3±10.9 kg (range 50.8 to 90.3 kg), and the mean ±SD height was 167±7 cm (range 155 to 180 cm). […]
Analysis of serum samples for determination of ethinyl estradiol was performed at Pharmaco LSR, Richmond, Va. Ethinylestradiol serum concentrations were determined using a gas chromatography/mass spectrometry (GC/MS) method. […] This method has been validated over 17α-ethinylestradiol concentrations ranging from 2.00 to 256 pg/mL for a 1.0 mL serum volume, with a minimum quantitation limit of 2.00 pg/mL.
Ethinylestradiol pharmacokinetic parameters were estimated following two single doses, on Day 1 and Day 29, using noncompartmental methods. The pharmacokinetic parameters were calculated using the intended sampling times; all samples were collected within 10% of intended sampling times. […] The area under the plasma concentration-time curve (AUC∞) was calculated as the sum of AUCt, the area up to the last measurable concentration computed using the linear trapezoidal rule, and the extrapolation to infinity, calculated as the quotient of the last measurable concentration (Ct) and the terminal elimination rate constant (β). The terminal elimination rate constant was calculated as the negative of the slope of the regression of the logarithms of the plasma concentrations vs. time, starting at 18 h post-dose. […]

Data set [5] has as its system bilirubin-conjugating activity. Conditions: cited from earlier work.
In data set [6] the test system is 3-methylcholanthrene-inducible UDP-glucuronosyltransferase. The data set is described as follows: Rat liver microarray (Affymetrix Rat U34), UGT1A probe induction. Type of data set: in vivo, Sprague-Dawley rats.
Data set [7] relates to UDP-glucuronosyltransferase 1 family, member 1. The description is as above. It counts as in vivo, Sprague-Dawley rats. Conditions: 3-Day Studies.
Data set [8] deals with UDP glucuronosyltransferase, exon 1. The data set is described as above. Type of data set: in vivo, Sprague-Dawley rats.
Data set [9] has as its system UDP-glucuronosyltransferase 1A (UGT1A). In words: Rat liver microarray, all UGT1A probe sets. Type of data set: in vivo, Sprague-Dawley rats. Conditions: dose levels of 100 mg/kg and higher, after 1 and 3 days of treatment.
The mark [10] stands for this setting: serum ethinylestradiol, single 50 μg oral contraceptive dose, Mean ± SD, n = 23, alone Day 1, with ritonavir 500 mg q12h Day 29.
The mark [11] stands for this setting: 1-Day Studies, 50 mg/kg oral (second column).
Setting [12] is: 3-Day Studies, 100 mg/kg oral daily.
[13] abbreviates: 3-Day Studies, 125 mg/kg oral daily.

Broadly, the Tmax is the time at which the peak concentration occurs.

On to `COC(=O)N[C@H](C(=O)N[C@@H](Cc1ccccc1)[C@@H](O)CN(Cc1ccc(-c2ccccn2)cc1)NC(=O)[C@@H](NC(=O)OC)C(C)(C)C)C(C)(C)C` [atazanavir, Atazanavir], for which the “inhibition of bilirubin conjugation” value (in [1]; on UGT1A1 isoform) was “inhibits bilirubin conjugation in the micromolar range” each time. For the same molecule, the “subjects exhibiting unconjugated hyperbilirubinemia” value in data set [2] was 57%.

Regarding `CCC1(c2ccccc2)C(=O)NC(=O)NC1=O` [Phenobarbitol], the 1-naphthol glucuronidation in data set [3] (Females, T3: phenobarbital 50 mg/kg intraperitoneal daily 4 days, 50 μM substrate) was 9.3 ± 0.4 nmol/mg/min; in data set [3] (Females, T3: phenobarbital 50 mg/kg intraperitoneal daily 4 days, 1000 μM substrate), 46.4 ± 8.6 nmol/mg/min; in data set [3] (Males, T3: phenobarbital 50 mg/kg intraperitoneal daily 4 days, 50 μM substrate), 15.4 ± 3.1 nmol/mg/min; in [3] (Males, T3: phenobarbital 50 mg/kg intraperitoneal daily 4 days, 1000 μM substrate), 41.0 ± 5.0 nmol/mg/min. Also, the 17α-ethinylestradiol glucuronidation with UGT1A1 (Females, T3: phenobarbital 50 mg/kg intraperitoneal daily 4 days, 100 μM substrate) was found to be 91.0 ± 34.0 pmol/mg/min; with UGT1A1 (Females, T3: phenobarbital 50 mg/kg intraperitoneal daily 4 days, 250 μM substrate) it was 360.6 ± 88.1 pmol/mg/min; with UGT1A1 (Males, T3: phenobarbital 50 mg/kg intraperitoneal daily 4 days, 100 μM substrate), 45.1 ± 16.5 pmol/mg/min; in the data set on UGT1A1 (Males, T3: phenobarbital 50 mg/kg intraperitoneal daily 4 days, 250 μM substrate), 258.5 ± 98.5 pmol/mg/min.

With `C#C[C@]1(O)CC[C@H]2[C@@H]3CCc4cc(O)ccc4[C@H]3CC[C@@]21C` [Ethinylestradiol, 17α-ethinylestradiol], in data set [4] (setting [10]), the Tmax is 4.0 ± 1.7 h and the “β (terminal elimination rate constant)” value is 0.0407 ± 0.0082 h⁻¹. Besides, the “time at which serum ethinylestradiol concentrations peaked post-dose” value in data set [4] (single dose of oral contraceptive) is recorded as “approximately 4 h”.

As for `CC(C)(C)NC(=O)[C@@H]1CN(Cc2cccnc2)CCN1C[C@@H](O)C[C@@H](Cc1ccccc1)C(=O)N[C@H]1c2ccccc2C[C@H]1O` [indinavir, Indinavir], in data set [5], the “inhibition of bilirubin-conjugating activity” value is “direct inhibition of bilirubin-conjugating activity”.

As to `CC(C)c1nc(CN(C)C(=O)N[C@H](C(=O)N[C@@H](Cc2ccccc2)C[C@H](O)[C@H](Cc2ccccc2)NC(=O)OCc2cncs2)C(C)C)cs1` [Ritonavir], the Fold change in [6] (1-Day Studies, 20 mg/kg oral (first column)) amounted to 1.83 fold; in data set [6] (1-Day Studies, 20 mg/kg oral (second column)), 1.54 fold; in data set [6] (1-Day Studies, 50 mg/kg oral (first column)) it was 1.63 fold; in [6] (setting [11]), 2.1 fold; in [6] (3-Day Studies, 50 mg/kg oral daily (first column)), 1.54 fold; in data set [6] (3-Day Studies, 50 mg/kg oral daily (second column)), 1.85 fold. Besides, the Fold change in data set [6] (3-Day Studies, 75 mg/kg oral daily) was 1.97 fold; in data set [6] (setting [12]) it was 2.26 fold; in data set [6] (setting [13]) it was 2.25 fold; in [7] (50 mg/kg oral daily (first column)), 1.31 fold; in [7] (50 mg/kg oral daily (second column)) it was 1.33 fold; in data set [8] (setting [11]), 2.43 fold. The Fold change in [8] (setting [12]) worked out at 3.96 fold; in data set [8] (setting [13]) it was 5.06 fold. The 1-naphthol glucuronidation in data set [3] (Females, T1: ritonavir 15 mg/kg oral daily 14 days, 50 μM substrate) is recorded as 7.3 ± 1.2 nmol/mg/min; in [3] (Females, T1: ritonavir 15 mg/kg oral daily 14 days, 1000 μM substrate), 33.7 ± 5.2 nmol/mg/min; in data set [3] (Females, T2: ritonavir 50 mg/kg oral daily 14 days, 50 μM substrate), 10.0 ± 2.7 nmol/mg/min; in [3] (Females, T2: ritonavir 50 mg/kg oral daily 14 days, 1000 μM substrate), 37.7 ± 4.9 nmol/mg/min; in data set [3] (Males, T1: ritonavir 15 mg/kg oral daily 14 days, 50 μM substrate), 9.5 ± 1.5 nmol/mg/min; in [3] (Males, T1: ritonavir 15 mg/kg oral daily 14 days, 1000 μM substrate), 23.0 ± 2.5 nmol/mg/min. Also, the 1-naphthol glucuronidation in data set [3] (Males, T2: ritonavir 50 mg/kg oral daily 14 days, 50 μM substrate) is listed as 8.3 ± 1.4 nmol/mg/min; in [3] (Males, T2: ritonavir 50 mg/kg oral daily 14 days, 1000 μM substrate), 22.8 ± 4.3 nmol/mg/min. For the same molecule, the “UG1A levels for all probe sets” value in [9] is given as “consistent increase”. Further, the 17α-ethinylestradiol glucuronidation in the data set with UGT1A1 (Females, T1: ritonavir 15 mg/kg oral daily 14 days, 100 μM substrate) is reported as 54.5 ± 24.0 pmol/mg/min; in the data set on UGT1A1 (Females, T1: ritonavir 15 mg/kg oral daily 14 days, 250 μM substrate), 336.4 ± 75.8 pmol/mg/min; in the data set on UGT1A1 (Females, T2: ritonavir 50 mg/kg oral daily 14 days, 100 μM substrate), 146.5 ± 26.0 pmol/mg/min; in the data set on UGT1A1 (Females, T2: ritonavir 50 mg/kg oral daily 14 days, 250 μM substrate), 590.9 ± 101.2 pmol/mg/min; in the data set on UGT1A1 (Males, T1: ritonavir 15 mg/kg oral daily 14 days, 100 μM substrate), 58.8 ± 2.2 pmol/mg/min; in the data set with UGT1A1 (Males, T1: ritonavir 15 mg/kg oral daily 14 days, 250 μM substrate) it was 171.8 ± 38.1 pmol/mg/min. Further, the 17α-ethinylestradiol glucuronidation was 34.0 ± 10.0 pmol/mg/min in the data set with UGT1A1 (Males, T2: ritonavir 50 mg/kg oral daily 14 days, 100 μM substrate) and 290.1 ± 45.6 pmol/mg/min in the data set on UGT1A1 (Males, T2: ritonavir 50 mg/kg oral daily 14 days, 250 μM substrate). Moreover, in the data set with UGT1A1 (both male and female rats), the “glucuronidation of 17α-ethinylestradiol, a UGT1A1 substrate” value is reported as “significantly increase”. For the same molecule, the “increase in glucuronidation of 17α-ethinylestradiol” value in the data set with UGT1A1 (both male and female rats treated with 50 mg/kg/day) was determined as 2 fold.
